Where “and” joins values, the source holds several entries; their conditions need not be identical. Equal values may be shown once. Inconclusive results and toxic doses are left out.

The assay has as its system P388 leukemia ip, CD2F1 mice, survival T/C. Put plainly: NCI In Vivo Anticancer Drug Screen. Data for tumor model P388 Leukemia (intraperitoneal) in CD2F1 (CDF1) mice. The conditions noted are these: endpoint: median survival time, higher = longer survival. The method in brief: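 Mice carrying the transplanted tumor received test compound or vehicle. Survival was recorded in each group, and the value is the treated-group measurement divided by that of the vehicle-treated control group.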

Where [1] appears, read: dose: 50.0 mg/kg/injection, schedule: Q01DX009 (ip), vehicle: saline with Tween-80.
[2] abbreviates: dose: 100.0 mg/kg/injection, schedule: Q01DX009 (ip), vehicle: saline with Tween-80.
The mark [3] stands for this setting: dose: 200.0 mg/kg/injection, schedule: Q01DX009 (ip), vehicle: saline with Tween-80.
[4] abbreviates: dose: 60.0 mg/kg/injection, schedule: Q01DX005 (ip), vehicle: saline with Tween-80.
[5] abbreviates: dose: 120.0 mg/kg/injection, schedule: Q01DX005 (ip), vehicle: saline with Tween-80.
Setting [6] is: dose: 50.0 mg/kg/injection, schedule: Q01DX005 (ip), vehicle: saline with Tween-80.

Consider `CC1(OC(=O)c2ccccc2)CC(C)(C)[N+]([O-])=N1` (stereo unspecified), for which the T/C is, setting by setting: (dose: 12.5 mg/kg/injection, schedule: Q01DX005 (ip), vehicle: other) 97 % of control; (dose: 25.0 mg/kg/injection, schedule: Q01DX005 (ip), vehicle: other) 98 % of control; (dose: 50.0 mg/kg/injection, schedule: Q01DX005 (ip), vehicle: other) 100 % of control; (dose: 100.0 mg/kg/injection, schedule: Q01DX005 (ip), vehicle: other) 90 % of control; (dose: 200.0 mg/kg/injection, schedule: Q01DX005 (ip), vehicle: other) 93 % of control.

Regarding `O=C(O)c1ccc(OCc2ccccc2)cc1`, the T/C is, setting by setting: (dose: 50.0 mg/kg/injection, schedule: Q01DX009 (ip), vehicle: saline) 93 % of control; (dose: 100.0 mg/kg/injection, schedule: Q01DX009 (ip), vehicle: saline) 93 % of control.

With `CCCCOn1nnc2ccccc21`, the T/C runs as follows: (dose: 12.5 mg/kg/injection, schedule: Q01DX009 (ip), vehicle: saline with Tween-80) 94 % of control; (dose: 25.0 mg/kg/injection, schedule: Q01DX009 (ip), vehicle: saline with Tween-80) 103 % of control; under setting [1], 100 % of control and 97 % of control; under setting [2], 101 % of control; under setting [3], 113 % of control.

On to `CC1=C(C)SC(=C2SC=CS2)S1`, for which the T/C reads like this: (dose: 100.0 mg/kg/injection, schedule: Q04DX002 (ip), vehicle: saline with Tween-80) 102 % of control; (dose: 200.0 mg/kg/injection, schedule: Q04DX002 (ip), vehicle: saline with Tween-80) 92 % of control; (dose: 400.0 mg/kg/injection, schedule: Q04DX002 (ip), vehicle: saline with Tween-80) 95 % of control.

Turning to `CN1C=[N+](C)Cc2nnn(Cc3ccccc3)c21`, the T/C reads like this: (dose: 1.56 mg/kg/injection, schedule: Q01DX009 (ip), vehicle: saline) 105 % of control; (dose: 3.12 mg/kg/injection, schedule: Q01DX009 (ip), vehicle: saline) 105 % of control; (dose: 6.25 mg/kg/injection, schedule: Q01DX009 (ip), vehicle: saline) 100 % of control.

As for `Cc1c(COC(=O)NC(C)C)c(COC(=O)NC(C)C)c2c3ccccc3c3ccccc3n12`, the T/C reads like this: (dose: 12.5 mg/kg/injection, schedule: Q01DX009 (ip), vehicle: distilled water + Tween-80) 180 % of control; (dose: 25.0 mg/kg/injection, schedule: Q01DX009 (ip), vehicle: distilled water + Tween-80) 173 % of control; (dose: 50.0 mg/kg/injection, schedule: Q01DX009 (ip), vehicle: distilled water + Tween-80) 110 % of control; (dose: 100.0 mg/kg/injection, schedule: Q01DX009 (ip), vehicle: distilled water + Tween-80) 88 % of control.

Turning to `CC(CN)OCc1ccccc1` (stereo unspecified), the T/C runs as follows: (dose: 12.5 mg/kg/injection, schedule: Q04DX003 (ip), vehicle: saline) 95 % of control; (dose: 25.0 mg/kg/injection, schedule: Q04DX003 (ip), vehicle: saline) 100 % of control; (dose: 50.0 mg/kg/injection, schedule: Q04DX003 (ip), vehicle: saline) 100 % of control.

In the case of `C/C=C(\C)C(=O)OC1C(C)=C2C(C1OC(=O)CCCCC)C(C)(OC(C)=O)CC(OC(=O)CCC)C1(O)C2OC(=O)C1(C)O` (stereo unspecified), the T/C was 105 % of control (dose: 0.25 mg/kg/injection, schedule: Q01DX005 (ip), vehicle: Klucel (hydroxypropylcellulose) (HPC)); 99 % of control and 123 % of control (dose: 0.5 mg/kg/injection, schedule: Q01DX005 (ip), vehicle: Klucel (hydroxypropylcellulose) (HPC)); 105 % of control (dose: 1.0 mg/kg/injection, schedule: Q01DX005 (ip), vehicle: Klucel (hydroxypropylcellulose) (HPC)); 106 % of control (dose: 2.0 mg/kg/injection, schedule: Q01DX005 (ip), vehicle: Klucel (hydroxypropylcellulose) (HPC)).

Take `Clc1nc2nc(Cl)c(Cl)n2nc1Cl`: the T/C is, setting by setting: (dose: 6.25 mg/kg/injection, schedule: Q04DX002 (ip), vehicle: saline) 109 % of control; (dose: 12.5 mg/kg/injection, schedule: Q04DX002 (ip), vehicle: saline) 107 % of control; (dose: 25.0 mg/kg/injection, schedule: Q04DX002 (ip), vehicle: saline) 106 % of control.

As to `O=C1CCC(C(=O)N2CCCC2)N1` (stereo unspecified), the T/C is, setting by setting: (dose: 50.0 mg/kg/injection, schedule: Q01DX005 (ip), vehicle: saline) 96 % of control and 100 % of control; (dose: 100.0 mg/kg/injection, schedule: Q01DX005 (ip), vehicle: saline) 104 % of control and 98 % of control; (dose: 200.0 mg/kg/injection, schedule: Q01DX005 (ip), vehicle: saline) 104 % of control and 97 % of control.

As for `COCC/C=C\CN(C(C)C)C(C)C`, the T/C reads like this: under setting [1], 99 % of control; under setting [2], 101 % of control.

`CC1(C)C(C#N)C(=O)NC(=O)C1C#N` (stereo unspecified): the T/C was 97 % of control (dose: 12.5 mg/kg/injection, schedule: Q01DX009 (ip), vehicle: water); 95 % of control (dose: 25.0 mg/kg/injection, schedule: Q01DX009 (ip), vehicle: water); 93 % of control (dose: 50.0 mg/kg/injection, schedule: Q01DX009 (ip), vehicle: water); 104 % of control (dose: 100.0 mg/kg/injection, schedule: Q01DX009 (ip), vehicle: water); 101 % of control (dose: 200.0 mg/kg/injection, schedule: Q01DX009 (ip), vehicle: water).

As for `OC1OC2CCC3C2C2C1C1C4CCC5OC(O)C6C3C2C1C6C54` (stereo unspecified), the T/C is, setting by setting: (dose: 20.0 mg/kg/injection, schedule: Q01DX005 (ip), vehicle: saline with Tween-80) 97 % of control; (dose: 40.0 mg/kg/injection, schedule: Q01DX005 (ip), vehicle: saline with Tween-80) 100 % of control; (dose: 80.0 mg/kg/injection, schedule: Q01DX005 (ip), vehicle: saline with Tween-80) 100 % of control.

`CCCCCCCC(=O)NC(CCSC)C(=O)O` (stereo unspecified): the T/C is 107 % of control (dose: 50.0 mg/kg/injection, schedule: Q01DX005 (ip), vehicle: Klucel (hydroxypropylcellulose) (HPC)); 88 % of control (dose: 100.0 mg/kg/injection, schedule: Q01DX005 (ip), vehicle: Klucel (hydroxypropylcellulose) (HPC)); 104 % of control (dose: 200.0 mg/kg/injection, schedule: Q01DX005 (ip), vehicle: Klucel (hydroxypropylcellulose) (HPC)).

On to `NNC(=O)COc1ccc(Br)cc1Br`, for which the T/C under setting [4] is 95 % of control and the T/C under setting [5] was 97 % of control.

`C=CCc1ccc(OCCN(CC)CC)c(OC)c1`: the T/C was 117 % of control (dose: 12.5 mg/kg/injection, schedule: Q01DX005 (ip), vehicle: saline with Tween-80); 113 % of control (dose: 25.0 mg/kg/injection, schedule: Q01DX005 (ip), vehicle: saline with Tween-80); 98 % of control under setting [6].

With `CC1(C)CC(=O)C(C)(CCC#N)C(=O)C1`, the T/C is, setting by setting: (dose: 100.0 mg/kg/injection, schedule: Q04DX003 (ip), vehicle: saline) 102 % of control; (dose: 200.0 mg/kg/injection, schedule: Q04DX003 (ip), vehicle: saline) 99 % of control; (dose: 400.0 mg/kg/injection, schedule: Q04DX003 (ip), vehicle: saline) 99 % of control.

With `CN(O)C1(/C(N)=N/O)C(C2COC(C)(C)O2)OC2OC(C)(C)OC21` (stereo unspecified), the T/C was 106 % of control (dose: 100.0 mg/kg/injection, schedule: Q04DX002 (ip), vehicle: Klucel (hydroxypropylcellulose) (HPC)); 106 % of control (dose: 200.0 mg/kg/injection, schedule: Q04DX002 (ip), vehicle: Klucel (hydroxypropylcellulose) (HPC)); 105 % of control (dose: 400.0 mg/kg/injection, schedule: Q04DX002 (ip), vehicle: Klucel (hydroxypropylcellulose) (HPC)).

Regarding `CCN=C1NS(=O)(=O)c2ccccc21`, the T/C was 100 % of control under setting [6]; 97 % of control (dose: 100.0 mg/kg/injection, schedule: Q01DX005 (ip), vehicle: saline with Tween-80); 100 % of control (dose: 200.0 mg/kg/injection, schedule: Q01DX005 (ip), vehicle: saline with Tween-80).

Regarding `C1COCCOCCOCCOCCO1.[Br][Sn]([Br])([Br])[Br]`, the T/C (dose: 7.5 mg/kg/injection, schedule: Q01DX005 (ip), vehicle: Klucel (hydroxypropylcellulose) (HPC)) is 96 % of control; the T/C (dose: 15.0 mg/kg/injection, schedule: Q01DX005 (ip), vehicle: Klucel (hydroxypropylcellulose) (HPC)) is 102 % of control; the T/C (dose: 30.0 mg/kg/injection, schedule: Q01DX005 (ip), vehicle: Klucel (hydroxypropylcellulose) (HPC)) was 105 % of control.

As for `Cc1ccc2c(c1)sc(C)[n+]2CCO`, the T/C is 100 % of control under setting [4]; 101 % of control under setting [5]; 101 % of control (dose: 240.0 mg/kg/injection, schedule: Q01DX005 (ip), vehicle: saline with Tween-80).

On to `O=C1CSC(=S)N1C1CC1`, for which the T/C under setting [1] was 95 % of control, the T/C under setting [2] was 86 % of control and the T/C under setting [3] is 87 % of control.

The record behind these values is PubChem BioAssay AID330 (DTP/NCI, 2004).
